Assay: Binding affinity towards Opioid receptor delta 1 from guinea pig brain using [3H]naltrindole as radioligand

**Q.** With `C[C@H]1[C@H]2Cc3ccc(O)cc3[C@@]1(C)CCN2C[C@@H]1CCCO1` as the compound, how does the Ki read?
**A.** 2.5 nM

**Q.** Which Ki does the source give for `C[C@@H]1[C@@H]2Cc3ccc(N)cc3[C@]1(C)CCN2CC1CC1` [3-Cyclopropylmethyl-6,11-dimethyl-1,2,3,4,5,6-hexahydro-2,6-methano-benzo[d]azocin-8-ylamine] here?
**A.** 920 nM

**Q.** For `CC[C@@]12CCN(CC3CC3)C(C(=O)c3ccc(Nc4ccccc4)cc31)[C@@H]2C` [3-Cyclopropylmethyl-6-ethyl-11-methyl-8-phenylamino-3,4,5,6-tetrahydro-2H-2,6-methano-benzo[d]azocin-1-one], which Ki is on record?
**A.** 37 nM

**Q.** With `C[C@H]1C2C(=O)c3ccc(O)cc3[C@@]1(C)CCN2CC1CC1` [3-Cyclopropylmethyl-8-hydroxy-6,11-dimethyl-3,4,5,6-tetrahydro-2H-2,6-methano-benzo[d]azocin-1-one] as the compound, how does the Ki read?
**A.** 20 nM

**Q.** For `C[C@H]1[C@H]2Cc3ccc(N)cc3[C@@]1(C)CCN2C[C@@H]1CCCO1` [6,11-Dimethyl-3-(tetrahydro-furan-2-ylmethyl)-1,2,3,4,5,6-hexahydro-2,6-methano-benzo[d]azocin-8-ylamine], which Ki is on record?
**A.** 370 nM

**Q.** Which Ki does the source give for `C[C@H]1C2C(=O)c3ccc(N)cc3[C@@]1(C)CCN2CC1CC1` [8-Amino-3-cyclopropylmethyl-6,11-dimethyl-3,4,5,6-tetrahydro-2H-2,6-methano-benzo[d]azocin-1-one] here?
**A.** 29 nM

**Q.** With `CC[C@@]12CCN(CC3CC3)C(C(=O)c3ccc(N)cc31)[C@@H]2C` [8-Amino-3-cyclopropylmethyl-6-ethyl-11-methyl-3,4,5,6-tetrahydro-2H-2,6-methano-benzo[d]azocin-1-one] as the compound, how does the Ki read?
**A.** 81 nM

**Q.** With `C[C@H]1C2Cc3cc4c(cc3[C@@]1(C)CCN2CC1CC1)[nH]c1ccccc14` [17-cyclopropylmethyl-1,20-dimethyl-(1S,20R)-5,17-diazapentacyclo[14.3.1.02,14.04,12.06,11]icosa-2(14),3,6(11),7,9,12-hexaene] as the compound, how does the Ki read?
**A.** 170 nM

**Q.** With `COc1ccccc1Nc1ccc2c(c1)[C@@]1(C)CCN(CC3CC3)C(C2)[C@@H]1C` [(3-Cyclopropylmethyl-6,11-dimethyl-1,2,3,4,5,6-hexahydro-2,6-methano-benzo[d]azocin-8-yl)-(2-methoxy-phenyl)-amine] as the compound, how does the Ki read?
**A.** 98 nM

**Q.** With `C[C@H]1C2Cc3ccc(Nc4ccc(Cl)c(Cl)c4)cc3[C@@]1(C)CCN2CC1CC1` [(3-Cyclopropylmethyl-6,11-dimethyl-1,2,3,4,5,6-hexahydro-2,6-methano-benzo[d]azocin-8-yl)-(3,4-dichloro-phenyl)-amine] as the compound, how does the Ki read?
**A.** 29 nM

**Q.** Which Ki does the source give for `COc1cccc(Nc2ccc3c(c2)[C@@]2(C)CCN(CC4CC4)C(C3)[C@@H]2C)c1` [(3-Cyclopropylmethyl-6,11-dimethyl-1,2,3,4,5,6-hexahydro-2,6-methano-benzo[d]azocin-8-yl)-(3-methoxy-phenyl)-amine] here?
**A.** 13 nM

**Q.** For `COc1ccc(CNc2ccc3c(c2)[C@@]2(C)CCN(CC4CC4)C(C3)[C@@H]2C)cc1` [(3-Cyclopropylmethyl-6,11-dimethyl-1,2,3,4,5,6-hexahydro-2,6-methano-benzo[d]azocin-8-yl)-(4-methoxy-benzyl)-amine], which Ki is on record?
**A.** 80 nM

**Q.** For `COc1ccc(Nc2ccc3c(c2)[C@@]2(C)CCN(CC4CC4)C(C3)[C@@H]2C)cc1` [(3-Cyclopropylmethyl-6,11-dimethyl-1,2,3,4,5,6-hexahydro-2,6-methano-benzo[d]azocin-8-yl)-(4-methoxy-phenyl)-amine], which Ki is on record?
**A.** 8.3 nM

**Q.** For `C[C@H]1C2Cc3ccc(Nc4ccc(C(F)(F)F)cc4)cc3[C@@]1(C)CCN2CC1CC1` [(3-Cyclopropylmethyl-6,11-dimethyl-1,2,3,4,5,6-hexahydro-2,6-methano-benzo[d]azocin-8-yl)-(4-trifluoromethyl-phenyl)-amine], which Ki is on record?
**A.** 180 nM

**Q.** Which Ki does the source give for `Cc1ccc(Nc2ccc3c(c2)[C@@]2(C)CCN(CC4CC4)C(C3)[C@@H]2C)cc1` [(3-Cyclopropylmethyl-6,11-dimethyl-1,2,3,4,5,6-hexahydro-2,6-methano-benzo[d]azocin-8-yl)-p-tolyl-amine] here?
**A.** 6.2 nM

**Q.** For `C[C@H]1C2Cc3ccc(Nc4ccccn4)cc3[C@@]1(C)CCN2CC1CC1` [(3-Cyclopropylmethyl-6,11-dimethyl-1,2,3,4,5,6-hexahydro-2,6-methano-benzo[d]azocin-8-yl)-pyridin-2-yl-amine], which Ki is on record?
**A.** 11 nM

**Q.** Which Ki does the source give for `C[C@H]1C2Cc3ccc(Nc4cccnc4)cc3[C@@]1(C)CCN2CC1CC1` [(3-Cyclopropylmethyl-6,11-dimethyl-1,2,3,4,5,6-hexahydro-2,6-methano-benzo[d]azocin-8-yl)-pyridin-3-yl-amine] here?
**A.** 21 nM

**Q.** For `C[C@H]1C2Cc3ccc(Nc4ccncc4)cc3[C@@]1(C)CCN2CC1CC1` [(3-Cyclopropylmethyl-6,11-dimethyl-1,2,3,4,5,6-hexahydro-2,6-methano-benzo[d]azocin-8-yl)-pyridin-4-yl-amine], which Ki is on record?
**A.** 240 nM

**Q.** With `C[C@H]1C2Cc3ccc(NCc4ccc(Cl)cc4)cc3[C@@]1(C)CCN2CC1CC1` [(4-Chloro-benzyl)-(3-cyclopropylmethyl-6,11-dimethyl-1,2,3,4,5,6-hexahydro-2,6-methano-benzo[d]azocin-8-yl)-amine] as the compound, how does the Ki read?
**A.** 100 nM

**Q.** With `C[C@H]1C2Cc3ccc(Nc4ccc(Cl)cc4)cc3[C@@]1(C)CCN2CC1CC1` [(4-Chloro-phenyl)-(3-cyclopropylmethyl-6,11-dimethyl-1,2,3,4,5,6-hexahydro-2,6-methano-benzo[d]azocin-8-yl)-amine] as the compound, how does the Ki read?
**A.** 26 nM

**Q.** Which Ki does the source give for `C[C@H]1C2Cc3ccc(Nc4ccc(C(C)(C)C)cc4)cc3[C@@]1(C)CCN2CC1CC1` [(4-tert-Butyl-phenyl)-(3-cyclopropylmethyl-6,11-dimethyl-1,2,3,4,5,6-hexahydro-2,6-methano-benzo[d]azocin-8-yl)-amine] here?
**A.** 61 nM

**Q.** Which Ki does the source give for `C[C@H]1C2Cc3ccc(N(C)C)cc3[C@@]1(C)CCN2CC1CC1` [((6S,11R)-3-Cyclopropylmethyl-6,11-dimethyl-1,2,3,4,5,6-hexahydro-2,6-methano-benzo[d]azocin-8-yl)-dimethyl-amine] here?
**A.** 810 nM

**Q.** For `C[C@H]1C2Cc3ccc(N=C(c4ccccc4)c4ccccc4)cc3[C@@]1(C)CCN2CC1CC1` [Benzhydrylidene-(3-cyclopropylmethyl-6,11-dimethyl-1,2,3,4,5,6-hexahydro-2,6-methano-benzo[d]azocin-8-yl)-amine], which Ki is on record?
**A.** 220 nM

**Q.** With `C[C@H]1C2Cc3ccc(Nc4ccc(N(C)C)cc4)cc3[C@@]1(C)CCN2CC1CC1` [N-(3-Cyclopropylmethyl-6,11-dimethyl-1,2,3,4,5,6-hexahydro-2,6-methano-benzo[d]azocin-8-yl)-N',N'-dimethyl-benzene-1,4-diamine] as the compound, how does the Ki read?
**A.** 75 nM

**Q.** For `C[C@H]1[C@H]2Cc3ccc(Nc4ccccc4)cc3[C@@]1(C)CCN2C[C@@H]1CCCO1` [[6,11-Dimethyl-3-(tetrahydro-furan-2-ylmethyl)-1,2,3,4,5,6-hexahydro-2,6-methano-benzo[d]azocin-8-yl]-phenyl-amine], which Ki is on record?
**A.** 35 nM
